# Measurements reported in US7351882B2, “Canola line 45H24” (Pioneer Hi-Bred International, Inc., priority 2005, dated 2008).
# Tested on: Brassica napus variety 45H24
# Assay: Herbicide resistance rating of canola variety 45H24 at standard recommended application rates
# Format: in vivo
# Settings: for Herbicide resistance (description): result in words
# From the text: Herbicide Resistance: Resistance to various herbicides when applied at standard recommended application rates is expressed on a scale of 1 (resistant), 2 (tolerant), or 3 (susceptible).
structure (smiles),measurement,setting,value
O=C(O)CNCP(=O)(O)O [Glyphosate],Herbicide resistance (description),,resistant
same,Herbicide resistance (description),listed as glyphosate,resistance
same,Herbicide resistance (mean rating),"scale 0 = not tested, 1 = resistant, 2 = tolerant, 3 = susceptible",1.00
